# Reference: the supplement of paper PMC6045584
# ± gives the standard deviation of the averaged measurements.
# Tests used:
# BEZ-235 = compound: Cn1c(=O)n(-c2ccc(C(C)(C)C#N)cc2)c2c3cc(-c4cnc5ccccc5c4)ccc3ncc21 [BEZ-235]; assay: surviving fraction relative to DMSO-only wells; higher = less growth inhibition; details: exposure time: 5 days
# In short: (§1)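 Continuous five-day exposure to inhibitors at 0.5, 1, 5, 10, 50, 100, 500 and 1000 nM started 24 hours after log-phase tumour cell lines were seeded at 250–500 cells per well in 384-well plates. Luminescence was read after 10 minutes at room temperature. Viability is given as surviving fraction, meaning CellTiter-Glo luminescence normalised to the median of DMSO-only wells.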
# BMN-673 = compound: Cn1ncnc1[C@H]1c2n[nH]c(=O)c3cc(F)cc(c23)N[C@@H]1c1ccc(F)cc1 [BMN-673]; assay: as above; details: exposure time: 5 days
# In short: as §1
Test System,surviving fraction (BEZ-235; 0.5 nM),surviving fraction (BEZ-235; 1 nM),surviving fraction (BEZ-235; 5 nM),surviving fraction (BEZ-235; 10 nM),surviving fraction (BEZ-235; 50 nM),surviving fraction (BEZ-235; 100 nM),surviving fraction (BEZ-235; 500 nM),surviving fraction (BEZ-235; 1000 nM),surviving fraction (BMN-673; 0.5 nM),surviving fraction (BMN-673; 1 nM),surviving fraction (BMN-673; 5 nM),surviving fraction (BMN-673; 10 nM),surviving fraction (BMN-673; 50 nM),surviving fraction (BMN-673; 100 nM),surviving fraction (BMN-673; 500 nM),surviving fraction (BMN-673; 1000 nM)
22RV1 PROSTATE,1.04 ± 0.047,1.02 ± 0.085,0.992 ± 0.097,0.949 ± 0.096,0.448 ± 0.025,0.339 ± 0.065,0.126 ± 0.017,0.119 ± 0.018,1.06 ± 0.073,1.01 ± 0.11,0.871 ± 0.14,0.776 ± 0.18,0.657 ± 0.09,0.64 ± 0.037,0.468 ± 0.061,0.324 ± 0.048
93VU HEADNECK,0.972 ± 0.12,0.985 ± 0.13,1.1 ± 0.11,1.08 ± 0.059,0.921 ± 0.035,0.71 ± 0.1,0.308 ± 0.053,0.334 ± 0.043,1.07 ± 0.071,1.14 ± 0.11,1.07 ± 0.14,0.983 ± 0.056,0.98 ± 0.084,0.925 ± 0.018,0.806 ± 0.087,0.632 ± 0.053
143B BONE,1.03 ± 0.047,1.04 ± 0.047,1.031 ± 0.0028,1.0385 ± 0.00071,0.852 ± 0.033,0.735 ± 0.017,0.36 ± 0.017,0.336 ± 0.0028,1.08 ± 0.047,1.11 ± 0.086,1.1 ± 0.054,1.09 ± 0.073,1.11 ± 0.16,1.05 ± 0.064,0.733 ± 0.06,0.528 ± 0.052
A549 LUNG,0.997 ± 0.054,1.01 ± 0.052,1.01 ± 0.074,1.01 ± 0.083,1.03 ± 0.033,0.66 ± 0.022,0.26 ± 0.022,0.221 ± 0.0093,1.08 ± 0.026,1.1 ± 0.014,1.08 ± 0.033,1.07 ± 0.028,1.13 ± 0.08,1.1 ± 0.025,1.05 ± 0.043,0.972 ± 0.048
ASKA SYNOVIAL,1.06 ± 0.03,0.994 ± 0.023,0.896 ± 0.032,0.9767 ± 0.0031,0.775 ± 0.046,0.652 ± 0.016,0.418 ± 0.02,0.436 ± 0.019,0.846 ± 0.056,0.753 ± 0.041,0.625 ± 0.043,0.602 ± 0.024,0.54 ± 0.062,0.427 ± 0.036,0.342 ± 0.015,0.334 ± 0.016
BT20 BREAST,1.13 ± 0.062,1.07 ± 0.18,1.04 ± 0.14,1.03 ± 0.082,0.619 ± 0.051,0.42 ± 0.087,0.265 ± 0.044,0.246 ± 0.031,1.22 ± 0.014,1.15 ± 0.11,1.04 ± 0.034,0.971 ± 0.052,0.88 ± 0.035,0.797 ± 0.074,0.673 ± 0.13,0.474 ± 0.08
BT549 BREAST,1.06 ± 0.11,1.03 ± 0.032,1.03 ± 0.02,0.763 ± 0.22,0.699 ± 0.016,0.244 ± 0.073,0.136 ± 0.017,0.247 ± 0.29,1.07 ± 0.05,1.03 ± 0.019,1.03 ± 0.11,0.797 ± 0.044,0.755 ± 0.051,0.652 ± 0.079,0.438 ± 0.04,0.323 ± 0.019
C33A CERVIX,0.941 ± 0.029,0.984 ± 0.064,1.01 ± 0.098,0.993 ± 0.081,0.62 ± 0.043,0.349 ± 0.031,0.15 ± 0.016,0.14 ± 0.011,0.995 ± 0.028,0.968 ± 0.019,0.744 ± 0.079,0.655 ± 0.046,0.422 ± 0.035,0.332 ± 0.051,0.19 ± 0.015,0.172 ± 0.023
CADOES1 SOFT TISSUE,0.965 ± 0.1,0.996 ± 0.098,0.897 ± 0.03,0.99 ± 0.078,0.531 ± 0.11,0.28 ± 0.063,0.128 ± 0.007,0.0853 ± 0.01,0.979 ± 0.076,0.942 ± 0.05,0.745 ± 0.18,0.653 ± 0.094,0.378 ± 0.054,0.29 ± 0.027,0.135 ± 0.033,0.073 ± 0.013
CAL51 BREAST,0.92 ± 0.025,0.958 ± 0.035,0.902 ± 0.086,0.894 ± 0.056,0.453 ± 0.032,0.279 ± 0.018,0.097 ± 0.005,0.0853 ± 0.0042,0.941 ± 0.037,0.807 ± 0.065,0.548 ± 0.014,0.389 ± 0.021,0.219 ± 0.026,0.146 ± 0.027,0.0603 ± 0.01,0.0523 ± 0.0019
CAL72 BONE,1.05 ± 0.026,1.06 ± 0.041,1.07 ± 0.043,1.03 ± 0.041,0.754 ± 0.053,0.369 ± 0.021,0.142 ± 0.011,0.124 ± 0.0079,1.08 ± 0.13,1.07 ± 0.027,1.07 ± 0.018,1.09 ± 0.09,1.07 ± 0.082,0.973 ± 0.22,0.776 ± 0.19,0.509 ± 0.21
CAL120 BREAST,0.962 ± 0.022,0.9768 ± 0.0038,0.98 ± 0.011,0.911 ± 0.017,0.502 ± 0.029,0.296 ± 0.0058,0.102 ± 0.0053,0.0963 ± 0.0037,0.968 ± 0.033,0.915 ± 0.067,0.798 ± 0.05,0.676 ± 0.035,0.591 ± 0.014,0.506 ± 0.062,0.43 ± 0.021,0.425 ± 0.035
CASKI CERVIX,0.872 ± 0.028,0.922 ± 0.016,0.896 ± 0.065,0.882 ± 0.081,0.452 ± 0.021,0.292 ± 0.0061,0.127 ± 0.0064,0.096 ± 0.0036,0.942 ± 0.03,0.888 ± 0.063,0.9 ± 0.036,0.88 ± 0.06,0.858 ± 0.054,0.821 ± 0.068,0.594 ± 0.0084,0.502 ± 0.02
CHLA90 AUTONOMIC GANGLIA,0.983 ± 0.078,1 ± 0.033,0.979 ± 0.057,0.947 ± 0.05,0.644 ± 0.046,0.428 ± 0.024,0.175 ± 0.0087,0.106 ± 0.0023,0.939 ± 0.01,0.982 ± 0.068,0.906 ± 0.051,0.897 ± 0.045,0.938 ± 0.086,0.906 ± 0.083,0.814 ± 0.04,0.714 ± 0.026
CME SYNOVIAL,1.18 ± 0.12,1.28 ± 0.12,1.16 ± 0.066,1.26 ± 0.11,1.3 ± 0.11,1.12 ± 0.087,0.959 ± 0.076,0.713 ± 0.14,0.831 ± 0.068,0.528 ± 0.039,0.234 ± 0.018,0.211 ± 0.035,0.243 ± 0.024,0.211 ± 0.012,0.201 ± 0.0059,0.285 ± 0.0076
COLO320DM LARGE INTESTINE,1.06 ± 0.059,1.12 ± 0.08,1.14 ± 0.074,1.06 ± 0.039,0.869 ± 0.07,0.692 ± 0.034,0.328 ± 0.018,0.192 ± 0.0043,1.16 ± 0.049,1.1 ± 0.11,1.01 ± 0.038,0.951 ± 0.04,0.781 ± 0.061,0.704 ± 0.059,0.606 ± 0.0097,0.5533 ± 0.0029
DU4475 BREAST,0.914 ± 0.16,1.05 ± 0.13,0.919 ± 0.16,0.835 ± 0.1,0.525 ± 0.064,0.194 ± 0.018,0.0427 ± 0.0085,0.035 ± 0.0035,1.1 ± 0.049,0.916 ± 0.11,0.57 ± 0.055,0.456 ± 0.071,0.325 ± 0.068,0.278 ± 0.054,0.284 ± 0.052,0.293 ± 0.027
H23 LUNG,1.02 ± 0.051,1.04 ± 0.081,0.961 ± 0.057,0.903 ± 0.042,0.496 ± 0.055,0.382 ± 0.033,0.22 ± 0.015,0.194 ± 0.0072,1.07 ± 0.04,1.07 ± 0.056,1.06 ± 0.054,0.937 ± 0.014,0.779 ± 0.024,0.688 ± 0.055,0.507 ± 0.23,0.238 ± 0.02
HCC78 LUNG,0.953 ± 0.086,0.943 ± 0.17,1.05 ± 0.23,1.09 ± 0.15,0.621 ± 0.18,0.393 ± 0.05,0.0757 ± 0.011,0.0527 ± 0.01,1.06 ± 0.077,1 ± 0.097,1.04 ± 0.098,0.931 ± 0.21,0.678 ± 0.19,0.47 ± 0.084,0.117 ± 0.013,0.0383 ± 0.013
HCC202 BREAST,1.02 ± 0.32,1.07 ± 0.036,1.21 ± 0.22,1.34 ± 0.32,1.07 ± 0.32,0.722 ± 0.27,0.388 ± 0.089,0.232 ± 0.046,0.932 ± 0.39,1.15 ± 0.44,0.688 ± 0.18,0.769 ± 0.34,0.661 ± 0.13,0.566 ± 0.14,0.81 ± 0.05,0.671 ± 0.11
